In ChEMBL document CHEMBL5236635, “Structure-Based Drug Design and Synthesis of Novel N-Aryl-2,4-bithiazole-2-amine CYP1B1-Selective Inhibitors in Overcoming Taxol Resistance in A549 Cells” (J Med Chem, 2022):
pIC50: −log10 of the molar value. The source made the active and inactive calls. The calls are words filed in the database; no cut-off is given here.

Legend:
A549/TR [1] = assay: Synergistic antiproliferative activity against human A549/Taxol cells assessed as increase in taxol by measuring combination index at 30 uM incubated for 72 hrs in presence of 0.50 uM taxol by MTT assay; format: functional
A549/TR [2] = assay: Inhibition of cell migration in human A549/Taxol cells incubated for 36 hrs; format: functional, cell-based; details: dose 2.5-10 µM
A549/TR [3] = assay: Synergistic antiproliferative activity against human A549/Taxol cells assessed as increase in taxol by measuring combination index at 7.50 uM incubated for 72 hrs in presence of 0.50 uM taxol by MTT assay; format: functional; details: dose 7.5 µM
A549/TR [4] = assay: Synergistic antiproliferative activity against human A549/Taxol cells assessed as increase in taxol by measuring combination index at 3.75 uM incubated for 72 hrs in presence of 0.50 uM taxol by MTT assay; format: functional
A549/TR [5] = assay: Synergistic antiproliferative activity against human A549/Taxol cells assessed as increase in taxol by measuring combination index at 15 uM incubated for 72 hrs in presence of 0.13 uM taxol by MTT assay; format: functional
A549/TR [6] = assay: Inhibition of cell invasion in human A549/Taxol cells at 2.5 to 10 uM incubated for 18 hrs by optical microscopic analysis; format: functional, cell-based; details: dose 2.5-10 µM
A549/TR [7] = assay: Synergistic antiproliferative activity against human A549/Taxol cells assessed as inhibition of cell growth at 3.75 to 30 uM incubated for 72 hrs in presence of taxol by MTT assay; format: functional; design: scale not given: the % may be the effect or the level left; details: dose 3.75-30 µM
A549/TR [8] = assay: Synergistic antiproliferative activity against human A549/Taxol cells assessed as increase in taxol by measuring combination index at 7.50 uM incubated for 72 hrs in presence of 0.13 uM taxol by MTT assay; format: functional; details: dose 7.5 µM
A549/TR [9] = assay: Synergistic antiproliferative activity against human A549/Taxol cells assessed as increase in taxol by measuring combination index at 15 uM incubated for 72 hrs in presence of 0.06 uM taxol by MTT assay; format: functional
[10] = molecular target: Focal adhesion kinase 1 (Homo sapiens) (UniProt Q05397); assay: Inhibition of FAK pathway in human A549/Taxol cells assessed as decrease in phosphorylated FAK level at 2.5 to 5 uM incubated for 24 hrs; format: cell-based; details: dose 2.5-5 µM
Chain of Focal adhesion kinase 1 (Homo sapiens) (Q05397 2-1052 limits assumed): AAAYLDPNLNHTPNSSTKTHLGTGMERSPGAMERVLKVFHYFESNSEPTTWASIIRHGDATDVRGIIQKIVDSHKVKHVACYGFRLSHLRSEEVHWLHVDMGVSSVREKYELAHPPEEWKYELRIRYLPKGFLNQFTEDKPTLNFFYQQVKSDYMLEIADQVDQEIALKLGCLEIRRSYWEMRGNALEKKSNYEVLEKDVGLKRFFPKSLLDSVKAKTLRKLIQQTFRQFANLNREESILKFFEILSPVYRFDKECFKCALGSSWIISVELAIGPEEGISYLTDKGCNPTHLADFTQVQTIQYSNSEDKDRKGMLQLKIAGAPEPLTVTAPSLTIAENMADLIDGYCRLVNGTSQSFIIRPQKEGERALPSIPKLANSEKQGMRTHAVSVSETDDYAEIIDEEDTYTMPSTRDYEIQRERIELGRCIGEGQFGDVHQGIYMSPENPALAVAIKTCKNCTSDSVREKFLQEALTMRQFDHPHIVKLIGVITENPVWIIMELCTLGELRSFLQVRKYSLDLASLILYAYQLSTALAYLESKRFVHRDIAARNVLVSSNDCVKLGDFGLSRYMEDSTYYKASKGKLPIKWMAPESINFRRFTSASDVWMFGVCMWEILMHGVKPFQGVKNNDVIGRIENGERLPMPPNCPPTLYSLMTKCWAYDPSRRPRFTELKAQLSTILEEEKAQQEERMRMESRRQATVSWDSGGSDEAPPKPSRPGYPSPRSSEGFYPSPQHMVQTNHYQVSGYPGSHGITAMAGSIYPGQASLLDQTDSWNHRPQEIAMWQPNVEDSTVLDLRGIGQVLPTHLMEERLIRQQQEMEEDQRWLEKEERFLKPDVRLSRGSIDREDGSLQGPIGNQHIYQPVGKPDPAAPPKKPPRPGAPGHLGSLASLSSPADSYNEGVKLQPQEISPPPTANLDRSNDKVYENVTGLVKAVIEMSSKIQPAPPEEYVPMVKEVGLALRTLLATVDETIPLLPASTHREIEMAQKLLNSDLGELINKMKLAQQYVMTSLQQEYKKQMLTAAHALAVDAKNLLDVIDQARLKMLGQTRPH

A549 [11] = assay: Inhibition of DMBA-induced CYP1B1 overexpression in human A549 cells assessed as increase in Paxillin level incubated for 24 hrs by densitometry analysis; format: functional, cell-based; details: dose 5.0 µM
A549 [12] = assay: Inhibition of DMBA-induced cell migration in human A549 cells incubated for 48 hrs by inverted microscopic analysis; format: functional, cell-based; details: dose 5.0 µM
A549 [13] = assay: Downregulation of DMBA-induced CYP1B1 expression level in human A549 cells at 5 uM incubated for 24 hrs; format: functional, cell-based
A549 [14] = assay: Inhibition of DMBA-induced CYP1B1 overexpression in human A549 cells assessed as increase in SRC level incubated for 24 hrs by densitometry analysis; format: functional, cell-based; details: dose 5.0 µM
A549 [15] = assay: Inhibition of DMBA-induced CYP1B1 overexpression in human A549 cells assessed as increase in snail level incubated for 24 hrs by densitometry analysis; format: functional, cell-based; details: dose 5.0 µM
A549 [16] = assay: Inhibition of DMBA-induced CYP1B1 overexpression in human A549 cells assessed as effect on E-cadherin level at 5 uM incubated for 24 hrs by densitometry analysis; format: functional, cell-based
NCI-H460 [17] = assay: Inhibition of DMBA-induced AKT overexpression in human taxol resistance NCI-H460 cells incubated for 24 hrs; format: functional, cell-based; details: dose 5.0 µM
NCI-H460 [18] = assay: Inhibition of DMBA-induced CYP1B1 overexpression in human NCI-H460 cells assessed as effect on Snail level at 5 uM incubated for 24 hrs by densitometry analysis; format: functional, cell-based
A549 [19] = assay: Inhibition of DMBA-induced CYP1B1 overexpression in human A549 cells assessed as increase in SRC level at 5 uM incubated for 24 hrs by densitometry analysis; format: functional, cell-based
[20] = molecular target: Mitogen-activated protein kinase; ERK1/ERK2 (Homo sapiens) (UniProt P27361+P28482); assay: Inhibition of ERK1/2 pathway in human A549/Taxol cells assessed as decrease in phosphorylated ERK1/2 level at 5 uM incubated for 24 hrs; format: cell-based
Chain of Mitogen-activated protein kinase; ERK1/ERK2 (Homo sapiens) (P27361 whole entry, looked up): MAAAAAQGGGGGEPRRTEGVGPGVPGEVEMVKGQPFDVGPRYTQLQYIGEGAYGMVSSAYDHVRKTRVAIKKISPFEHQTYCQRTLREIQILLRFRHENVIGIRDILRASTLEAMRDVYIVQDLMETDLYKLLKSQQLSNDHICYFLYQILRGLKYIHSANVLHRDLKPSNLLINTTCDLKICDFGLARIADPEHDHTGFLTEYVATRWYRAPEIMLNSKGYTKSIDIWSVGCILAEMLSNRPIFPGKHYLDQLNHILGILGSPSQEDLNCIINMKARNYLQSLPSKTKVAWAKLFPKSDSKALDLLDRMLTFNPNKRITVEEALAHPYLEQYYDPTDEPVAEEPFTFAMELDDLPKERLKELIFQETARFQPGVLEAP
Chain of Mitogen-activated protein kinase; ERK1/ERK2 (Homo sapiens) (P28482 whole entry, looked up): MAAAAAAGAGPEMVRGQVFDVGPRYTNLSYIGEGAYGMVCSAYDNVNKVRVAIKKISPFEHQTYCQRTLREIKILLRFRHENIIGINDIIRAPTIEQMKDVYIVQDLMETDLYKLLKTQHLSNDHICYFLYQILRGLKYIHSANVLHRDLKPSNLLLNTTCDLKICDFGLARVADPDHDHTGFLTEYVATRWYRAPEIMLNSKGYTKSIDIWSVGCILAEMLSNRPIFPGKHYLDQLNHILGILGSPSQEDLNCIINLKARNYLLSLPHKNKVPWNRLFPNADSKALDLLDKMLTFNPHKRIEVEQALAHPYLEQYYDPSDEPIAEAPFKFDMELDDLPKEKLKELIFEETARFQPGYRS

NCI-H460 [21] = assay: Inhibition of DMBA-induced CYP1B1 overexpression in human NCI-H460 cells assessed as increase in Vimentin level incubated for 24 hrs by densitometry analysis; format: functional, cell-based; details: dose 5.0 µM
A549 [22] = assay: Inhibition of DMBA-induced ERK1/2 overexpression in human taxol resistance A549 cells at 5 uM incubated for 24 hrs; format: functional, cell-based
NCI-H460 [23] = assay: Inhibition of DMBA-induced CYP1B1 overexpression in human NCI-H460 cells assessed as increase in SRC level incubated for 24 hrs by densitometry analysis; format: functional, cell-based; details: dose 5.0 µM
A549/TR [24] = assay: Reversal of taxol resistance in human A549/Taxol cells assessed as suppression of P-gp expression level at 5 uM incubated for 20 mins by multimode plate reader analysis; format: functional, cell-based
A549 [25] = assay: Upregulation of DMBA-induced CYP1B1 expression level in human A549 cells incubated for 24 hrs; format: functional, cell-based; details: dose 1-10 µM
NCI-H460 [26] = assay: Inhibition of DMBA-induced CYP1B1 overexpression in human NCI-H460 cells assessed as increase in FAK level incubated for 24 hrs by densitometry analysis; format: functional, cell-based; details: dose 5.0 µM
NCI-H460 [27] = assay: Inhibition of DMBA-induced CYP1B1 overexpression in human NCI-H460 cells assessed as increase in SRC level at 5 uM incubated for 24 hrs by densitometry analysis; format: functional, cell-based
A549 [28] = assay: Inhibition of DMBA-induced CYP1B1 overexpression in human A549 cells assessed as decrease in Vimentin level at 5 uM incubated for 24 hrs by densitometry analysis; format: functional, cell-based
Cytochrome P450 1A2 = molecular target: T1, Cytochrome P450 1A2 (Homo sapiens, UniProt P05177); assay: Inhibition of recombinant human CYP1A2 using 7-ethyl-0-resorufin as substrate incubated for 30 mins in presence of NADPH by EROD assay
T1 sequence (P05177 whole entry): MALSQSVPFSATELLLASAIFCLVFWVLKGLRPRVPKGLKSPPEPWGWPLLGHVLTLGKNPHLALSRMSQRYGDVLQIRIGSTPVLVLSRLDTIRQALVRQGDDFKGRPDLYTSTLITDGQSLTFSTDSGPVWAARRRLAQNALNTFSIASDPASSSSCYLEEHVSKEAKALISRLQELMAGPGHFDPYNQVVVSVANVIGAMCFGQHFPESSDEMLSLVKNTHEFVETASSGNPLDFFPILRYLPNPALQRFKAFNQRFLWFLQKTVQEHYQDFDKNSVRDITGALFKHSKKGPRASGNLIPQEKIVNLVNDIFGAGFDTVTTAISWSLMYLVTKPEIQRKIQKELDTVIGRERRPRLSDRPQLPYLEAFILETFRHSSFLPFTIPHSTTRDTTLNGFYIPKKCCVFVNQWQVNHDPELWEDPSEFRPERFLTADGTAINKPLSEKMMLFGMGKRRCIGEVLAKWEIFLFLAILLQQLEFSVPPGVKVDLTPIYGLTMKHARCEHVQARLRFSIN

With `COc1cc(Nc2nc(-c3nc(-c4ccccc4F)cs3)cs2)cc(OC)c1` the CI (A549/TR [1]) was 0.2, the inhibition (A549/TR [2]) was “Dose-Dependent Effect” and the CI (A549/TR [3]) was 0.66. The CI (A549/TR [4]) was 0.98, the CI (A549/TR [5]) was 0.22 and the inhibition (A549/TR [6]) was “Dose-Dependent Effect”. It also gave an Activity (A549/TR [7]) of 62%, a CI (A549/TR [8]) of 0.31 and a CI (A549/TR [9]) of 0.2. The inhibition [10] was “Active”.

With `COc1cc(/C=C/c2ccc(OC)cc2OC)cc(OC)c1` the inhibition (A549 [11]) was “Dose-Dependent Effect”, the inhibition (A549 [12]) was “Dose-Dependent Effect” and the Activity (A549 [13]) was “inactive”. For the same molecule, the inhibition (A549 [14]) was “Dose-Dependent Effect”, the inhibition (A549 [15]) was “Dose-Dependent Effect” and the inhibition (A549 [16]) was “inactive”. The inhibition (NCI-H460 [17]) was “Dose-Dependent Effect”, the inhibition (NCI-H460 [18]) was “inactive” and the inhibition (A549 [19]) was “inactive”. For the same molecule, the inhibition [20] was “Active”, the inhibition (NCI-H460 [21]) was “Dose-Dependent Effect” and the inhibition (A549 [22]) was “Active”. The inhibition (NCI-H460 [23]) was “Dose-Dependent Effect”, the Activity (A549/TR [24]) was “Active” and the Activity (A549 [25]) was “Dose-Dependent Effect”. The inhibition (NCI-H460 [26]) was “Dose-Dependent Effect”, the inhibition (NCI-H460 [27]) was “inactive” and the inhibition (A549 [28]) was “inactive”. The pIC50 (Cytochrome P450 1A2) was 5.62.
